Results: paper PMC3688767, “Lipoprotein FtsB in Streptococcus pyogenes Binds Ferrichrome in Two Steps with Residues Tyr137 and Trp204 as Critical Ligands” (PLoS ONE, 2013)
Several values for one entry are separate records, joined by “and”; a condition that tells them apart may be missing. Identical values can stand only once. Square brackets hold non-standard residues; d marks the D form. Peptide text beside a SMILES is read from it. Orn(N5-OH,N5-Ac) = CC(=O)N(O)CCC[C@H](N)C(=O)O

Tests used:
WT FtsB [1] = target: T1, WT FtsB (Streptococcus pyogenes, UniProt Q9A198); test: Fluorescence quenching titration of ferrichrome binding, Hill plot
Description: (§1) The interaction between FtsB and Fch was investigated in a fluorescence spectroﬂuorimeter (Hitachi F7000), in which the excitation wavelength was 280 nm (slit width of 2.5 nm) and the emission wavelength was between 290 and 500 nm (slit width of 10 nm). Aliquots of Fch (1 mM stock solution) were gradually added to 1 mL FtsB solution (1.5 µM, in 20 mM Tris–HCl, pH 7.2). Fluorescence spectra were collected after each titration until the spectra were stable. The data were analyzed with Hill plot in Origin 7.5 to acquire the binding capability and dissociation constant (K d). pH dependent Fch binding with FtsB was also examined in the same buffer with pH 3.2–9.2.

[2] = target: T2, FtsB Tetra mutant E120A/Y137A/W204A/Y287A (Streptococcus pyogenes, UniProt Q9A198, E120A/W204A/Y137A/Y287A); test: as above; details: 20 mM Tris-HCl, pH 7.2, may be no-specific interaction, read-out: Dissociation constant K d
T2 sequence (Q9A198 21-310 E120A/Y137A/W204A/Y287A): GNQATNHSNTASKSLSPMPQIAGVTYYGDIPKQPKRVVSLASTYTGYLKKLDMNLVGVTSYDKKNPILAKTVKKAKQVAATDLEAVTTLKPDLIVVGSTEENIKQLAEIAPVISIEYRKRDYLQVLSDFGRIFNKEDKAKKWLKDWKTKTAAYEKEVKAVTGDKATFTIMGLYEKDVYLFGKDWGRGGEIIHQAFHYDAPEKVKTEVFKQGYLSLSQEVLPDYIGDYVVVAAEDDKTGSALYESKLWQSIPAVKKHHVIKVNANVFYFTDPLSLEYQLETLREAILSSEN
Description: (§2) E120A, Y137A, W204A and Y287A mutants were constructed by QuikChange mutagenesis kit (Stratagene) with the wild-type ftsb plasmid as a template, using primers summarized in Table 1. To further study the collective contribution of Glu120, Tyr137, Trp204 and Tyr287 to the Fch binding of FtsB, a tetra-point mutation E120A/Y137A/W204A/Y287A was produced by mutating these four amino acids to alanine simultaneously. The PCR reactions were performed as follows: denaturation at 95°C for 30 s, followed by 16 cycles with denaturation at 95°C for 30 s, annealing at 55°C for 1 min, and extension at 68°C for 6 min [14]. The mutant plasmids were transformed into E. coli XL1-blue for sequencing (Invitrogen). The mutant plasmid with correct sequence was transformed into E. coli BL21 (DE3) star competent cells for subsequent expression. Expression and purification of the FtsB mutants were carried out by following the same protocol as for the wild-type protein.
as §1

FtsB mutant E120A = target: T3, FtsB mutant E120A (Streptococcus pyogenes, UniProt Q9A198, E120A); test: as above; details: 20 mM Tris-HCl, pH 7.2, read-out: Dissociation constant K d
T3 sequence (Q9A198 21-310 E120A): T2 sequence (Q9A198 21-310 E120A/Y137A/W204A/Y287A)
Description: as §2, §1

FtsB mutant W204A = target: T4, FtsB mutant W204A (Streptococcus pyogenes, UniProt Q9A198, W204A); test: as above
T4 sequence (Q9A198 21-310 W204A): T2 sequence (Q9A198 21-310 E120A/Y137A/W204A/Y287A)
Description: as §2, §1

FtsB mutant Y137A [3] = target: T5, FtsB mutant Y137A (Streptococcus pyogenes, UniProt Q9A198, Y137A); test: as above
T5 sequence (Q9A198 21-310 Y137A): T2 sequence (Q9A198 21-310 E120A/Y137A/W204A/Y287A)
Description: as §2, §1

FtsB mutant Y287A = target: T6, FtsB mutant Y287A (Streptococcus pyogenes, UniProt Q9A198, Y287A); test: as above; details: 20 mM Tris-HCl, pH 7.2, read-out: Dissociation constant K d
T6 sequence (Q9A198 21-310 Y287A): T2 sequence (Q9A198 21-310 E120A/Y137A/W204A/Y287A)
Description: as §2, §1

FtsB mutant Y137A [4] = target: T5, FtsB mutant Y137A; test: Stopped-flow fluorescence binding kinetics; details: Y137A 10 µM mixed with Fch 1∶1, 25°C, pH 7.2, first-order exponential fit; listed as Fch
Description: (§3) Binding kinetics experiments were carried out using a stopped-ﬂow ﬂuorescence spectrometer (Applied Photophysics, SX200) at 25°C. The excitation wavelength was 280 nm and the ﬂuorescence emission was measured using a high-pass filter with a 320 nm cutoff. Binding reaction was initiated by mixing 10 µM FtsB in 20 mM Tris-HCl (pH 7.2) with Fch in a 1∶1 ratio. Kinetics experiments were performed 5 times, and data were analyzed with a second-order or first-order exponential function offered by Origin 7.5 software.

WT FtsB [5] = target: T1, WT FtsB; test: Stopped-flow fluorescence binding kinetics; details: WT FtsB 10 µM mixed with Fch 1∶1, 25°C, pH 7.2, second-order exponential fit; listed as Fch
Description: as §3

In the case of `CC(=O)N([O-])CCC[C@@H]1NC(=O)CNC(=O)CNC(=O)CNC(=O)[C@H](CCCN([O-])C(C)=O)NC(=O)[C@H](CCCN([O-])C(C)=O)NC1=O.[Fe+3]` [ferrichrome, Ferrichrome] (cyclo(GGG[Orn(N5-OH,N5-Ac)][Orn(N5-OH,N5-Ac)][Orn(N5-OH,N5-Ac)])), the Kd (WT FtsB [1]; WT FtsB 1.5 µM, 20 mM Tris-HCl, pH 7.2, read-out: Dissociation constant K d) is reported as 400 ± 20 nM, the “pH of maximal binding” value (WT FtsB [1]; pH dependence examined at pH 3.2–9.2) is reported as 7.2 and the Kd [2] is reported as 43900 ± 2500 nM. The Kd (FtsB mutant E120A) was 520 ± 30 nM, the “folds higher K d in comparison with WT” value (FtsB mutant W204A; W204A mutant vs WT FtsB) was 10–20 folds and the Kd (FtsB mutant W204A; W204A mutant, 20 mM Tris-HCl, pH 7.2, read-out: Dissociation constant K d) was 7050 ± 80 nM. The “folds higher K d in comparison with WT” value (FtsB mutant Y137A [3]; Y137A mutant vs WT FtsB) was 10–20 folds, the Kd (FtsB mutant Y137A [3]; Y137A mutant, 20 mM Tris-HCl, pH 7.2, read-out: Dissociation constant K d) was 3700 ± 100 nM and the Kd (FtsB mutant Y287A) was 520 ± 20 nM. The rate constant k (FtsB mutant Y137A [4]) was 191.6 ± 7.6 s⁻¹ and 191 s⁻¹, the “fast rate constant k1” value (WT FtsB [5]) was 180.2 ± 5.4 s⁻¹ and 180 s⁻¹ and the “slow rate constant k2” value (WT FtsB [5]) was 18.7 ± 1.3 s⁻¹.
